Measured values from US20260085073A1, “PYRAZOLYLCARBOXAMIDE COMPOUNDS AND THEIR USE IN THERAPY” (Hotspot Therapeutics, Inc., priority 2022, published 2026).

What follows are compounds tested against T1, MALT1 (Homo sapiens, UniProt Q9UDY8) (assay: MALT1 inhibition assay (MALT-1 Fluorogenic Peptide Cleavage Assay, Ac-LRSR-AMC substrate)). Settings: Avi-tagged FL MALT-1, 30 min pre-incubation, 90 min reaction at room temperature, fluorescence intensity.
T1 construct: Avi-tagged FL MALT-1 (Pharmaron, stored at −70° C.); Avi-tag
T1 sequence (Q9UDY8 1-824): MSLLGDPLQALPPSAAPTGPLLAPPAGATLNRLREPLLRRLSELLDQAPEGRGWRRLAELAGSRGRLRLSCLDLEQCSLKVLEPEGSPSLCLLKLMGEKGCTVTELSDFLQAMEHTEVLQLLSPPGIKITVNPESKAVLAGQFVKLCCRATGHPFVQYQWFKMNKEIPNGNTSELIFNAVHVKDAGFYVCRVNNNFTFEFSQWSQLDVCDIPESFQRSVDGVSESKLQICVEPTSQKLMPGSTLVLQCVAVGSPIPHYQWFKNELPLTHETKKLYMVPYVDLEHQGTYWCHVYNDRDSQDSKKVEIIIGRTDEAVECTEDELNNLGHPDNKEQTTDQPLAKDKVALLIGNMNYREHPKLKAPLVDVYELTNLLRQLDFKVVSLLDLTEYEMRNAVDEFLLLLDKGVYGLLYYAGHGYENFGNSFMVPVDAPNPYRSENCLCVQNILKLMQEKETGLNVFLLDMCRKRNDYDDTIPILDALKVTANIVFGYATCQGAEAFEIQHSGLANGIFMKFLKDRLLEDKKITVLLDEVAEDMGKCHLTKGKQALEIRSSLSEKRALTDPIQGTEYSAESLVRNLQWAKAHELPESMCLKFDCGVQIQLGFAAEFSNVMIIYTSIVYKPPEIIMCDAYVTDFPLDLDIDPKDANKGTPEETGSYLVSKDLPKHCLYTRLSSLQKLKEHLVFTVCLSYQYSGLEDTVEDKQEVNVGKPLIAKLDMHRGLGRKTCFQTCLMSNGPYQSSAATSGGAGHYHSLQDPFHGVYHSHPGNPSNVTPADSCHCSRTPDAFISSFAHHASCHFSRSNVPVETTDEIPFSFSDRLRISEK
Assay type: biochemical
Method: Example 71—MALT1 Inhibition Assay
Compounds were tested for ability to bind to MALT1.
Inhibition of MALT1 activity by the presence of small molecules was evaluated using MALT-1 Fluorogenic Peptide Cleavage Assay. The assay utilizes a quenched AMC-labelled peptide that contains the MALT-1 recognition sequence and cleavage site (LRSR). MALT-1 mediated cleavage of the peptide relieves the quenching and leads to an increase in fluorescence at excitation (342 nm) and emission (441 nm).
The following reagents were obtained commercially and used to prepare standard reagent formulations as further described below: N-2-hydroxyethylpiperazine-N-2-ethane sulfonic acid (HEPES) (1 M, pH 7.5, stored at 4° C.), sodium citrate (stored at RT), tris(2-carboxyethyl) phosphine hydrochloride (T-CEP) (500 mM, stored at −20° C.), ethylenediaminetetraacetic acid (EDTA) (500 mM, stored at RT), dimethylsulfoxide (DMSO, stored at RT), 3-[(3-cholamidopropyl)dimethylammonio]-1-propane sulphate (CHAPS) (stored at RT), dimethylsulfoxide (DMSO), DMSO (Fisher Scientific, stored at RT), Avi-tagged FL MALT-1 (Pharmaron, stored at −70° C.), Ac-LRSR-AMC Peptide (SM Biochemicals, stored at −20° C.), and ultrapure water (MILLI-QR).
The standard reagent formulations used in this assay were prepared and stored as follows. A 1.1 M solution of sodium citrate (161.3 g, 500 mL) was prepared and stored at room temperature. A 10% (w/v) CHAPS solution (2.0 g, 20 mL) was prepared and stored at 4° C. A 500 mM HEPES solution having pH of 6.89 was prepared from 200 mL of a 1 M HEPES solution having a pH of 7.5 using concentrated hydrochloric acid and brought to a final volume of 400 mL with MILLI-QR H2O. The substrate, 10 mM Ac-LRSR-AMC Peptide, was prepared (10 mg, 1.370 mL DMSO) and stored at −20° C.
Compounds were plated to provide a 2% DMSO final concentration using a ProxiPlate-384 Plus F Black 384-shallow well microplate. The assay-ready plates were equilibrated to room temperature. A reaction buffer (30 mL total volume) was prepared by combining HEPES (pH 6.89, 25 mM, 1.5 mL), sodium citrate (660 mM, 18.0 mL), T-CEP (1 mM, 0.06 mL), EDTA ([…], 0.06 mL), CHAPS (0.05%, 0.15 mL), DMSO (2%, 0.6 mL), and MILLI-QR H2O (10.23 mL; 9.63 mL when backfilled to 2% DMSO) followed by thorough mixing. DMSO was added only when compound plates had not been DMSO-backfilled to 2%.
MALT-1 was thawed and kept on ice. Peptide substrate was thawed on the bench under ambient conditions. A MALT-1 enzyme working stock was prepared from Avi-tagged FL MALT-1 (40 nM in a prepared reagent volume of 16.5 μL) and the reaction buffer (13.0 mL). MALT1 working stock (5 μL) was added to each well of the microplate. MALT-1 was pre-incubated with compounds for 30 minutes at room temperature.
Two substrate working stocks (Km and 10×Km) were prepared. The 1×Km substrate was prepared from Ac-LRSR-AMC Peptide (50 μM in a prepared reagent volume of 35.0 μL) and the reaction buffer (6.965 mL). The 10×Km substrate was prepared from Ac-LRSR-AMC Peptide (280 μM in a prepared reagent volume of 196.0 μL) and the reaction buffer (6.804 mL). The reaction was initiated by the addition of substrate working stock (5 μL, 50 μM) to Km plates and the addition of substrate working stock (5 μL 280 μM) to 10×Km plates. The plates were covered and incubated on the bench at room temperature for 90 minutes.
Fluorescence intensity was determined using a CLARIOstar microplate reader (BMG LABTECH) using the optimised AMC mode. Before taking readings, a 70% gain was applied on the neutral control well. Compound data were normalised to % Inhibition and used to plot sigmoidal concentration response curves to yield various parameters including IC50.
`Cn1nc(-c2cccn3nccc23)c(C(F)(F)F)c1C(=O)Nc1ccnc(C(F)(F)F)c1` [Compound I-87] showed an IC50 of under 500 nM.
Compound `COc1ccccc1-c1nn(C)c(C(=O)Nc2ccnc(C(F)(F)F)c2)c1C(F)(F)F` [Compound I-88] has an IC50 of under 500 nM.
With `Cn1nc(-c2cccc(Cl)c2Cl)c(C(F)(F)F)c1C(=O)Nc1ccnc(C(F)(F)F)c1` [Compound I-89] the IC50 was 500 to 2500 nM.
For `Cn1nc(-c2csc3ncccc23)c(C(F)(F)F)c1C(=O)Nc1ccnc(C(F)(F)F)c1` [Compound I-90], the IC50 was 500 to 2500 nM.
`Cn1nc(-c2cccc3c2CCO3)c(C(F)(F)F)c1C(=O)Nc1ccnc(C(F)(F)F)c1` [Compound I-91] showed an IC50 of 500 to 2500 nM.
For `Cn1nc(-c2csc3ccccc23)c(C(F)(F)F)c1C(=O)Nc1ccnc(C(F)(F)F)c1` [Compound I-92], the IC50 was under 500 nM.
Work on `Cn1nc(-c2cc(OC3COC3)ccc2Cl)c(C(F)(F)F)c1C(=O)Nc1ccnc(C(F)(F)F)c1` [Compound I-93] yielded an IC50 of 500 to 2500 nM.
Compound `Cn1nc(-c2cccc3c2COC3)c(C(F)(F)F)c1C(=O)Nc1ccnc(C(F)(F)F)c1` [Compound I-95] has an IC50 of 500 to 2500 nM.
`Cn1nc(-c2cccc3scnc23)c(C(F)(F)F)c1C(=O)Nc1ccnc(C(F)(F)F)c1` [Compound I-96] was tested, and the IC50 was under 500 nM.
Compound `Cn1nc(-c2cccc3[nH]ccc23)c(C(F)(F)F)c1C(=O)Nc1ccnc(C(F)(F)F)c1` [Compound I-97] has an IC50 of 500 to 2500 nM.
In the case of `CN1Cc2c(cccc2-c2nn(C)c(C(=O)Nc3ccnc(C(F)(F)F)c3)c2C(F)(F)F)C1=O` [Compound I-98], the IC50 is reported as over 10000 nM.
Work on `Cn1nc(-c2cccc3ccsc23)c(C(F)(F)F)c1C(=O)Nc1ccnc(C(F)(F)F)c1` [Compound I-99] yielded an IC50 of under 500 nM.
For `CC(=O)Nc1cc(-c2nn(C)c(C(=O)Nc3ccnc(C(F)(F)F)c3)c2C(F)(F)F)ccn1` [Compound I-100], the IC50 was over 10000 nM.
Work on `Cc1csc2c(-c3nn(C)c(C(=O)Nc4ccnc(C(F)(F)F)c4)c3C(F)(F)F)cccc12` [Compound I-101] yielded an IC50 of 500 to 2500 nM.
Work on `Cn1nc(-c2cccn3nnnc23)c(C(F)(F)F)c1C(=O)Nc1ccnc(C(F)(F)F)c1` [Compound I-102] yielded an IC50 of 2500 to 10000 nM.
Compound `Cn1cc(-c2nn(C)c(C(=O)Nc3ccnc(C(F)(F)F)c3)c2C(F)(F)F)c(C2CC2)n1` [Compound I-103] has an IC50 of 2500 to 10000 nM.
With `COc1cc(-c2nn(C)c(C(=O)Nc3ccnc(C(F)(F)F)c3)c2C(F)(F)F)c2scnc2c1` [Compound I-104] the IC50 was over 10000 nM.
`Cn1nc(-c2nccc3ccccc23)c(C(F)(F)F)c1C(=O)Nc1ccnc(C(F)(F)F)c1` [Compound I-105, 3-(isoquinolin-1-yl)-1-methyl-4-(trifluoromethyl)-N-(2-(trifluoromethyl)pyridin-4-yl)-1H-pyrazole-5-carboxamide] was tested, and the IC50 was 500 to 2500 nM.
Compound `Cn1nc(-c2nccc3ccoc23)c(C(F)(F)F)c1C(=O)Nc1ccnc(C(F)(F)F)c1` [Compound I-106] has an IC50 of under 500 nM.
Work on `Cn1nc(-c2nccc3ncsc23)c(C(F)(F)F)c1C(=O)Nc1ccnc(C(F)(F)F)c1` [Compound I-107] yielded an IC50 of over 10000 nM.
In the case of `COCCn1cc(-c2nn(C)c(C(=O)Nc3ccnc(C(F)(F)F)c3)c2C(F)(F)F)c2ccncc21` [Compound I-108], the IC50 is reported as over 10000 nM.
Work on `Cn1nc(-c2cccc3nnsc23)c(C(F)(F)F)c1C(=O)Nc1ccnc(C(F)(F)F)c1` [Compound I-109] yielded an IC50 of over 10000 nM.
With `Cn1nc(-c2ccnc3c(F)cccc23)c(C(F)(F)F)c1C(=O)Nc1ccnc(C(F)(F)F)c1` [Compound I-110] the IC50 was 500 to 2500 nM.
With `Cn1nc(-c2nccn3ccnc23)c(C(F)(F)F)c1C(=O)Nc1ccnc(C(F)(F)F)c1` [Compound I-111] the IC50 was 500 to 2500 nM.
For `Cn1nc(-c2cn(C)c3c(=O)[nH]ccc23)c(C(F)(F)F)c1C(=O)Nc1ccnc(C(F)(F)F)c1` [Compound I-112], the IC50 was 2500 to 10000 nM.
For `Cn1nc(-c2csc3c(=O)[nH]ccc23)c(C(F)(F)F)c1C(=O)Nc1ccnc(C(F)(F)F)c1` [Compound I-113], the IC50 was 500 to 2500 nM.
Work on `Cn1nc(-c2cncc3ccn(C)c23)c(C(F)(F)F)c1C(=O)Nc1ccnc(C(F)(F)F)c1` [Compound I-114] yielded an IC50 of 500 to 2500 nM.
For `Cn1nc(-c2cncc3cc[nH]c23)c(C(F)(F)F)c1C(=O)Nc1ccnc(C(F)(F)F)c1` [Compound I-115], the IC50 was 2500 to 10000 nM.
With `Cn1nc(-c2cccc3c(=O)[nH]ncc23)c(C(F)(F)F)c1C(=O)Nc1ccnc(C(F)(F)F)c1` [Compound I-116] the IC50 was 500 to 2500 nM.
`Cn1nc(-c2cccc3nc(N)sc23)c(C(F)(F)F)c1C(=O)Nc1ccnc(C(F)(F)F)c1` [Compound I-117] showed an IC50 of 500 to 2500 nM.
Compound `Cn1nc(-c2cccc3nncn23)c(C(F)(F)F)c1C(=O)Nc1ccnc(C(F)(F)F)c1` [Compound I-118] has an IC50 of 2500 to 10000 nM.
With `Cn1nc(-c2cncc3nccn23)c(C(F)(F)F)c1C(=O)Nc1ccnc(C(F)(F)F)c1` [Compound I-119] the IC50 was 2500 to 10000 nM.
Compound `Cn1nc(-c2csc3cnccc23)c(C(F)(F)F)c1C(=O)Nc1cnc(-n2nccn2)c(C(F)(F)F)c1` [Compound I-120, N-(6-(2H-1,2,3-triazol-2-yl)-5-(trifluoromethyl)pyridin-3-yl)-1-methyl-3-(thieno[2,3-c]pyridin-3-yl)-4-(trifluoromethyl)-1H-pyrazole-5-carboxamide] has an IC50 of under 500 nM.
For `Cn1nc(-c2cccc3ncccc23)c(C(F)(F)F)c1C(=O)Nc1cnc(-n2nccn2)c(C(F)F)c1` [Compound I-121], the IC50 was under 500 nM.
`Cn1nc(-c2cccc3ncccc23)c(C(F)(F)F)c1C(=O)Nc1cnc(-n2nccn2)c(C(F)(F)F)c1` [Compound I-122] was tested, and the IC50 was under 500 nM.
Work on `Cn1nc(-c2cccc3ncn(C4CC4)c23)cc1C(=O)Nc1ccnc(C(F)(F)F)c1` [Compound I-123] yielded an IC50 of over 10000 nM.
`Cn1nc(-c2c[nH]c3cnccc23)c(C(F)(F)F)c1C(=O)Nc1ccnc(C(F)(F)F)c1` [Compound I-124] showed an IC50 of 500 to 2500 nM.
Work on `Cn1nc(-c2cccc3ncsc23)c(C(F)(F)F)c1C(=O)Nc1cnc(-n2nccn2)c(C(F)(F)F)c1` [Compound I-125] yielded an IC50 of under 500 nM.
For `Cn1nc(-c2cccc3ncsc23)c(C(F)(F)F)c1C(=O)Nc1cnc(-n2nccn2)c(Cl)c1` [Compound I-126], the IC50 was under 500 nM.
`Cn1nc(-c2cccc3ccoc23)c(C(F)(F)F)c1C(=O)Nc1cnc(-n2nccn2)c(C(F)(F)F)c1` [Compound I-127] was tested, and the IC50 was under 500 nM.
